# According to paper PMC12305662, “Fragment-Based Development of Small Molecule Inhibitors Targeting Mycobacterium tuberculosis Cholesterol Metabolism” (Journal of Medicinal Chemistry, 2025):
# Several values for one entry are separate records, joined by “and”; a condition that tells them apart may be missing. Equal entries are not always repeated. Where two headings read alike, the source gives them in different places.
# What was measured:
# CYP125 [1] = molecular target: T1, CYP125 (Mycobacterium tuberculosis, UniProt P9WPP1); test: biochemical; format: binding
# CYP125 [2] = molecular target: T1, CYP125; test: LC-MS substrate turnover assay (cholest-4-en-3-one); format: biochemical
# Mtb H37Rv [3] = test: Extracellular Mtb growth on cholesterol, MABA MIC99; format: cell-based, Mycobacterium tuberculosis; conditions: Mycobacterium tuberculosis, H37RV
# Mtb H37Rv [4] = test: Depletion of intracellular ATP (BacTiter Glo), Mtb on cholesterol; format: cell-based, Mycobacterium tuberculosis; conditions: 2 weeks post-compound treatment
# Mtb (Erdman) = test: Extracellular Mtb (Erdman) growth on cholesterol-supplemented (0.01%) media, MABA; format: cell-based, Mycobacterium tuberculosis; conditions: Mycobacterium tuberculosis, ERDMAN, 168 h, MABA 1 week post-compound treatment, mean ± SD n = 3, read-out: mixed media IC50 (Erdman)
# H37Rv Mtb = test: Extracellular Mtb growth, MABA MIC90 (drug susceptible strain); format: cell-based; conditions: Mycobacterium tuberculosis
# [5] = system: MDR-TB strain K26b00MR 113; test: microbe, parasite or virus in culture; format: cell-based, Mycobacterium tuberculosis; conditions: Mycobacterium tuberculosis, K26b00MR 113
# HepG2 cells = test: HepG2 cytotoxicity assay (CellTiter Glo ATP); format: cell-based; conditions: ATP (RLU)
# Protocol: Compounds were tested against HepG2 cells for their ability to inhibit ATP production as a measure of cytotoxicity. HepG2 cells were cultured in DMEM supplemented with 10% (v/v) FBS, Hepes, L-glutamine and glucose or galactose. Compounds were serial diluted in microtiter plates (as described above) and HepG2 cells were added at a final concentration of 20,000 cells per well. Inhibition of ATP levels was noted by adding CellTiter Glo (Promega) reagent at a 1:10 dilution and luminescence was noted after 10 min incubation at room temperature.
# [6] = system: Mtb/iniB reporter (cell wall damage response); format: cell-based, Mycobacterium tuberculosis; conditions: 50–0.05 μM, days 1, 2, 4, 7
# [7] = system: Mtb/recA reporter (DNA damage response); format: cell-based, Mycobacterium tuberculosis; conditions: 50–0.05 μM, days 1, 2, 4, 7
# [8] = system: Mtb/radA reporter (DNA damage response); format: cell-based, Mycobacterium tuberculosis; conditions: 50–0.05 μM, days 1, 2, 4, 7
# CYP1A = molecular target: T2, CYP1A (Homo sapiens, UniProt P05177); test: Inhibition of human liver microsomal P450s; format: in vitro ADME
# T2 construct: from tissue; host or cells: human liver microsomes
# T2 sequence (P05177 2-516 limits assumed): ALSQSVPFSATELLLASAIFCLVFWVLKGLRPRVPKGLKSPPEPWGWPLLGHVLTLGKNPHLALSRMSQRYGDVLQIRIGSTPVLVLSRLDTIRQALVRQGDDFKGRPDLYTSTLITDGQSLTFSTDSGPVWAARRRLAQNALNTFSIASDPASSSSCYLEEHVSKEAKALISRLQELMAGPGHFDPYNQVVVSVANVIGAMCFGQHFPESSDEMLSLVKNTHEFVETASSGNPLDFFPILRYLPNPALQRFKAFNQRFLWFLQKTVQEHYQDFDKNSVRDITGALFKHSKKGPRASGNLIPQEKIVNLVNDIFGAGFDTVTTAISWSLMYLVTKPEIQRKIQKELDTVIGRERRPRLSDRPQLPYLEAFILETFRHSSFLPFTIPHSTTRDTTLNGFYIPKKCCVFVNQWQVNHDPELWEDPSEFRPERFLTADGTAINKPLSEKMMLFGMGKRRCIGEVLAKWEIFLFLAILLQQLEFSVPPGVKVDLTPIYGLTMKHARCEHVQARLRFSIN
# From the text: (§1) Table S8. Inhibition of human liver microsomal P450s. Inhibition constants (IC 50 values, µM) of
# (§2) following substrates: CYP1A-ethoxyresorufin, CYP2C19- mephenytoin, CYP2C9-tolbutamide, CYP2D6-
# (§3) dextromethorphan, CYP3A4-midazolam/testosterone.
# CYP2C19 = molecular target: T3, CYP2C19 (Homo sapiens, UniProt P33261); test: Inhibition of human liver microsomal P450s; format: in vitro ADME
# T3 construct: from tissue; host or cells: human liver microsomes
# From the text: as §1, §2, §3
# CYP2C9 = molecular target: T4, CYP2C9 (Homo sapiens, UniProt P11712); test: Inhibition of human liver microsomal P450s; format: in vitro ADME
# T4 construct: from tissue; host or cells: human liver microsomes
# From the text: as §1, §2, §3
# CYP2D6 = molecular target: T5, CYP2D6 (Homo sapiens, UniProt P10635); test: Inhibition of human liver microsomal P450s; format: in vitro ADME
# T5 construct: from tissue; host or cells: human liver microsomes
# From the text: as §1, §2, §3
# CYP3A4 = molecular target: T6, CYP3A4 (Homo sapiens, UniProt P08684); test: Inhibition of human liver microsomal P450s; format: in vitro ADME
# T6 construct: from tissue; host or cells: human liver microsomes
# From the text: as §1, §2, §3
# [9] = system: several human P450 isoforms (panel: CYP1A, CYP2C19, CYP2C9, CYP2D6, CYP3A4); test: in vitro; format: in vitro ADME
# Protocol: As several P450 isoforms were inhibited as concentrations <5 μM, the compound has potential to cause drug–drug interactions and further optimization of the benzylpyridine scaffold to improve CYP125/142 selectivity would be required for in vivo applications.
# as §1, §2, §3
# [10] = system: uninfected THP-1 macrophages; test: THP-1 cytotoxicity (ATPLite); conditions: concentrations up to 50 μM
# Mtb CDC1551 = test: Depletion of intracellular ATP, Mtb on glucose; conditions: read-out: ATP IC50 (W1) CDC1551, glucose media; glucose as sole carbon source; 1 week
# Protocol: (Mtb) H37Rv or CDC1551 strains were grown in Middlebrook 7H9 broth medium (Difco) supplemented with 0.3 g/L casitone, 0.81 g/L NaCl, 0.05% (v/v) tyloxapol, and either 97 mg/L cholesterol, 4 g/L glucose, or 0.2% glycerol. For inhibitor assays, a 10-fold serial dilution of the test compounds was made in the desired medium in duplicate rows of a 96-well plate. Mtb cells were then added to all the wells at the final concentration of 1 × 10^4 CFU, and plates were incubated at 37 °C for up to 15 days. Minimum inhibitory concentrations (MIC99) were determined using the Microplate Alamar Blue Assay (MABA) on day 15.
# BacTiter Glo reagent (Promega) was added to microtiter plates (1:10 dilution) and luminescence was recorded after 15 min of incubation at room temperature. […] Isoniazid or p-amino salicylic acid were used as positive control compounds for all experiments. Reported MIC and IC50 values are the mean of duplicate treatments.
# T1 sequence (P9WPP1 whole entry): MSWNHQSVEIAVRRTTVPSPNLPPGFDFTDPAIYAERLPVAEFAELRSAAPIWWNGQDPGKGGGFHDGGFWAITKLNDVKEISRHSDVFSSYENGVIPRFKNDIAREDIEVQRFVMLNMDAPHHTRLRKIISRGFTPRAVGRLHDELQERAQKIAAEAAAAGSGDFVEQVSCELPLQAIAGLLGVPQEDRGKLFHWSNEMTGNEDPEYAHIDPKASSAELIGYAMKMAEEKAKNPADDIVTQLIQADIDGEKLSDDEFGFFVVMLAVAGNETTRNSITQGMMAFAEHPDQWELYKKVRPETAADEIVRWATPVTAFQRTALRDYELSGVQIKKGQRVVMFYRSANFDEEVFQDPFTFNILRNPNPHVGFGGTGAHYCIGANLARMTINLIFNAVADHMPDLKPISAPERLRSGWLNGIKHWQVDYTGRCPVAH
# T6 sequence (P08684 whole entry): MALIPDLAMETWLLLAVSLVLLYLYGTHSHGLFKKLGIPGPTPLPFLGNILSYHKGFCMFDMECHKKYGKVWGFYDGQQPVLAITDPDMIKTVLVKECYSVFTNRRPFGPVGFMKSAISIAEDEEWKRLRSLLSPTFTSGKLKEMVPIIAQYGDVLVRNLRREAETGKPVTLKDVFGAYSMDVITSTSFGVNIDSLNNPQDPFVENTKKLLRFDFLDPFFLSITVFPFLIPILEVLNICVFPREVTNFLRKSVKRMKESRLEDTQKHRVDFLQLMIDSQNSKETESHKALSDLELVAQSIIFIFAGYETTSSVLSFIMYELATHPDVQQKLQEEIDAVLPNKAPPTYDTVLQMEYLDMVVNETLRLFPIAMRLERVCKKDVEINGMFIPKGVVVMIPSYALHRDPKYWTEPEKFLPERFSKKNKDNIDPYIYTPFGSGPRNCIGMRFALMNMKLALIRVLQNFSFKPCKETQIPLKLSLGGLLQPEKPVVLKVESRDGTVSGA
# T3 sequence (P33261 whole entry): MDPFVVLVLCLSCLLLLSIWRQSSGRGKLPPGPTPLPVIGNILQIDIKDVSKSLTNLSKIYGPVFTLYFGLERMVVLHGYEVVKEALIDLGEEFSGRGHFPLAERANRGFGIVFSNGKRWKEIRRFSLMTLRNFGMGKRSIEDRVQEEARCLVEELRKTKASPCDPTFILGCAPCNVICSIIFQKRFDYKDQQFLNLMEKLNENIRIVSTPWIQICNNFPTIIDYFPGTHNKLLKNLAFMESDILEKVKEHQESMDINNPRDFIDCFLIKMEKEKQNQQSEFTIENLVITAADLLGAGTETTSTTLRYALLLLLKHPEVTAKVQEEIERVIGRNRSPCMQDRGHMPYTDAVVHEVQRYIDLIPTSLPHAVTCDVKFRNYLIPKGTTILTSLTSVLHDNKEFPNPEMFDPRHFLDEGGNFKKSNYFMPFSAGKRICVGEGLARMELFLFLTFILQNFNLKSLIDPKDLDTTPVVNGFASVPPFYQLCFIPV
# T5 sequence (P10635 whole entry): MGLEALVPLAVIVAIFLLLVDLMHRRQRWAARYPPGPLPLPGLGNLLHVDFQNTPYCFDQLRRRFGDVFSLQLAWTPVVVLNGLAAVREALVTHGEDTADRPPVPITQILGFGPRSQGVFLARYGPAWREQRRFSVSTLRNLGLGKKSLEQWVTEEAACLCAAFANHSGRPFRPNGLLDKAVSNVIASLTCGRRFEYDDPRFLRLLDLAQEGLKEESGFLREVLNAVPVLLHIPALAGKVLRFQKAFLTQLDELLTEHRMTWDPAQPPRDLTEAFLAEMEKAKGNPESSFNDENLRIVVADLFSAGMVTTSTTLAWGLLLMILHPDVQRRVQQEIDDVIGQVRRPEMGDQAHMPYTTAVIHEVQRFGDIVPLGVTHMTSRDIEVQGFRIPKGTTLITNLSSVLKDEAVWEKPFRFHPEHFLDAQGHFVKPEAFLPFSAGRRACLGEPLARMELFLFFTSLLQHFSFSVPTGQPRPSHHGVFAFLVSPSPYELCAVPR
# T4 sequence (P11712 whole entry): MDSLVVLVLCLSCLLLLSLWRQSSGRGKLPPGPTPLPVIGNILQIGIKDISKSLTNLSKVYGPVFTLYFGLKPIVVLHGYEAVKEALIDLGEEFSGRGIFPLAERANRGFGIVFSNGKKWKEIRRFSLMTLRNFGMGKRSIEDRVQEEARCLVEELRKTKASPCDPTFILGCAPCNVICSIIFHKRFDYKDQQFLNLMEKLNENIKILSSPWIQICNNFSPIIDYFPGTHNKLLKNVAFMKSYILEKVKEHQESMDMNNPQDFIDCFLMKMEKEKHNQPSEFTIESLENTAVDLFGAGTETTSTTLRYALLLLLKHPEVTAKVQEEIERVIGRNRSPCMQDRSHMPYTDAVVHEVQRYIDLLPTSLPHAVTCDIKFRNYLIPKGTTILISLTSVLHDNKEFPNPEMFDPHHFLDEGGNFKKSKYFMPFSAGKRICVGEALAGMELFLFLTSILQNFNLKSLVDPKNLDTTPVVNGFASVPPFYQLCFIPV
compound,measurement,setting,value
"COc1ccc(CNc2ccc(Cc3ccncc3)cc2)cc1 [5m, N-(4-Methoxybenzyl)-4-(pyridin-4-ylmethyl)aniline]","improvement in binding affinity KD 1a/5m, CYP125",CYP125 [1],> 1000 fold
same,ligand efficiency (LE),CYP125 [1],> 0.4
same,group efficiency (GE) of the benzylamine,CYP125 [1]; CYP125 and CYP142,0.20–0.50
same,Kd,"CYP125 [1]; KD, dual CYP125/142 ligand",0.04 to 0.16 µM and ~0.1 µM
same,"ΔΔG [5m-1a], CYP125",CYP125 [1]; proportion of binding affinity attributed to the 1a-ii hotspot,0.5
same,Kd,CYP125 [1]; read-out: KD (μM) CYP125,0.04 ± 0.021 µM
same,IC50,"CYP125 [2]; CYP125 0.5 μM, cholest-4-en-3-one 5 µM, LC-MS, read-out: CYP125A1 IC50",350 ± 40 nM
same,Ki,"CYP125 [2]; estimated by Cheng-Prusoff, cholest-4-en-3-one Km CYP125 = 2.1 µM, read-out: CYP125A1 KI",< 1000 nM and 100 nM
same,Ki,"CYP125 [2]; one bound given for both enzymes, read-out: KI, enzyme activity in vitro (CYP125/142)",< 100 nM
same,Ki,"CYP125 [2]; one range given for both enzymes, read-out: KI, catalytic activity in vitro (CYP125/142)",50 to 100 nM
same,MIC99,"Mtb H37Rv [3]; 336 h, cholesterol as sole carbon source, 2 weeks post-compound treatment, read-out: MABA-MIC99 (W2) H37Rv, cholesterol",1.5 µM
same,MIC99,"Mtb H37Rv [3]; 336 h, cholesterol as sole carbon source, 2 weeks, conversion of 1.5 μM, read-out: MIC99 H37Rv, cholesterol",~0.46 µg/mL
same,MIC99,"Mtb H37Rv [3]; read-out: MIC99, growth of Mtb in extracellular assays",0.4 to 1.5 µM
same,IC50,"Mtb H37Rv [4]; Mycobacterium tuberculosis, H37RV, 336 h, H37Rv, bovine serum albumin, read-out: ATP IC50 (W2), cholesterol media with BSA",2300 nM
same,IC50,"Mtb H37Rv [4]; Mycobacterium tuberculosis, H37RV, 336 h, H37Rv, casitone, read-out: ATP IC50 (W2), cholesterol media with casitone",1500 nM
same,IC50,"Mtb H37Rv [4]; Mycobacterium tuberculosis, H37RV, 336 h, cholesterol as sole carbon source, read-out: ATP-IC50 (W2) H37Rv, cholesterol",1200 nM
same,IC50,"Mtb H37Rv [4]; cholesterol as sole carbon source, read-out: ATP-IC50 (W2) H37Rv, cholesterol",1100 nM
same,IC50,Mtb (Erdman),2900 ± 190 nM
same,MIC90,"H37Rv Mtb; 168 h, read-out: MIC90 (W1) H37Rv",0.78 µM
same,MIC90,"H37Rv Mtb; 336 h, MABA 2 weeks post-compound treatment, read-out: MIC90 (W2) H37Rv",6.25 µM
same,MIC90,"[5]; 168 h, read-out: MIC90 (W1) MDR-TB, MABA 1 week post-compound treatment",0.39 µM
same,MIC90,"[5]; 336 h, read-out: MIC90 (W2) MDR-TB, MABA 2 weeks post-compound treatment",12.5 µM
same,"HepG2 LD50 / IC50, galactose media","HepG2 cells; galactose-containing media, mean ± SD n = 2",3200 nM
same,"HepG2 LD50 / IC50, glucose media",HepG2 cells; standard (glucose-containing) media,> 50000 nM
same,upregulation of iniB reporter,[6],did not induce the upregulation
same,upregulation of recA reporter,[7],did not induce the upregulation
same,upregulation of radA reporter,[8],did not induce the upregulation
same,IC50,CYP1A,820 nM
same,IC50,CYP2C19,440 nM
same,IC50,CYP2C9,1860 nM
same,IC50,CYP2D6,330 nM
same,IC50,"CYP3A4; CYP3A4 IC50 (midazolam), substrate midazolam (first value of cell)",520 nM
same,IC50,"CYP3A4; CYP3A4 IC50 (testosterone), substrate testosterone (second value of cell)",1820 nM
same,IC50,[9],< 5000 nM
same,THP-1 cytotoxicity in words,[10],no effect on THP-1 cell viability
same,IC50,Mtb CDC1551,4700 nM
